In patent US11083729B2, “Methods of treating cancer with small molecule NF-κB inhibitors” (ImmuneTarget, Inc., priority 2017, dated 2021) one finds IC50 data, which are given here for 3 compounds.

Holding throughout (assay type): cell-based
Experiment [1] relates to AGS. The experiment is described as follows: CellTiter-Glo IG50, Example 8, AGS. The conditions noted are these: Homo sapiens, 72 hours. The method, then: (§1) Various pancreatic, liver, colon, breast, and stomach cancer cell lines were exposed to the NF-κB inhibitors of the present invention, including, for example, IT-839, IT-843, IT-848, and IT-878, and assessed for IG50 in the CellTiter Glo 2.0 assay.
(§2) The cells were cultured in an atmosphere of 37° C., 5% CO2 and 95% humidity. All culture media and FBS were purchased from GIBCO, Hyclone or Sigma, USA. The media used for cell culture is described in the table below.
(§3) The cells were harvested during the logarithmic growth period and counted. Cell concentrations were adjusted to the appropriate number in appropriate medium and 90 μl cell suspensions were added to 96-well plates. When cells were added, the plates were shaken gently to distribute the cells evenly. Cells were incubated at 37° C. and 5% CO2.
(§4) 3× serial dilutions of test compound stock solutions with respective solvents were prepared. The stock solutions were diluted with culture medium to generate 10× working solutions of the test compounds. 10 μl of the 10× test compound solutions were added to each well in triplicate for each concentration. Plates were incubated for 72 hours in a humidified incubator at 37° C. and 5% CO2.
(§5) CellTiter-Glo (CTG) solution was thawed and equilibrated to room temperature. 50 μl of CTG were added to each well and the contents were mixed for 2 minutes on a plate shaker. Cells were incubated for 10 minutes before luminescence signal was recorded using Envision.
(§6) Cell viability was plotted with GraphPad Prism version 5 and the IG50 was calculated for each cell line. The graphical curves were fitted using a nonlinear regression model with a sigmoidal dose response. IG50 is the concentration of test drug where 100×T/C=50 (the optical density of the test well after a 3-day period of exposure to test drug is T; the control optical density is C).
In general terms: Cellular ATP, detected with luciferase, serves as a proxy for viable cell number.

The test system of experiment [2] is Hep3B. Briefly: CellTiter-Glo IG50, Example 8, Hep3B. The following applies: Homo sapiens, 72 hours. The method, then: as §1, §2, §3, §4, §5, §6
Experiment [3] has as its system KATO III. Briefly: CellTiter-Glo IG50, Example 8, KATO III. The following applies: Homo sapiens, 72 hours. The method, then:
as §1, §2, §3, §4, §5, §6

Experiment [4] concerns HT-29. Briefly: CellTiter-Glo IG50, Example 8, HT-29. The following applies: Homo sapiens, HT-29, 72 hours. The protocol:
as §1, §2, §3, §4, §5, §6

The test system of experiment [5] is Capan-1. Briefly: CellTiter-Glo IG50, Example 8, Capan-1. The conditions noted are these: Homo sapiens, Capan-1, 72 hours. The method, then: as §1, §2, §3, §4, §5, §6
Experiment [6] deals with HepG2. Briefly: CellTiter-Glo IG50, Example 9 HCC panel, HepG2. The following applies: Homo sapiens, HepG2, 72 hours. The method, then:
as §3, §4, §5, §6, §2
(§7) Following the cell culture protocol and data analysis methods described in Example 8, the following IG50 results (in μM) were observed: […]

The subject of experiment [7] is PBMC. The experiment is described as follows: CellTiter-Glo IG50, Example 9 HCC panel, PBMC. The conditions noted are these: 72 hours. The protocol: as §3, §4, §5, §6, §2, §7
Experiment [8] concerns MKN45. The experiment is described as follows: CellTiter-Glo IG50, Example 8, MKN45. The conditions noted are these: Homo sapiens, MKN-45, MKN45, 72 hours. The method, then:
as §1, §2, §3, §4, §5, §6

In experiment [9] the test system is Hep3B. The experiment is described as follows: CellTiter-Glo IG50, Example 9 HCC panel, Hep3B. The following applies: Homo sapiens, 72 hours. The protocol:
as §3, §4, §5, §6, §2, §7

Experiment [10] relates to PLC/PRF/5. The experiment is described as follows: CellTiter-Glo IG50, Example 8, PLC/PRF/5. The following applies: Homo sapiens, PLC/PRF/5, 72 hours. The method, then: as §1, §2, §3, §4, §5, §6
For experiment [11], the system named is JHH5. The experiment is described as follows: CellTiter-Glo IG50, Example 9 HCC panel, JHH5. The following applies: JHH5, 72 hours. The method, then:
as §3, §4, §5, §6, §2, §7

Experiment [12] deals with MDA-MB-231. Briefly: CellTiter-Glo IG50, Example 8, MDA-MB-231. The following applies: Homo sapiens, MDA-MB-231, 72 hours. The protocol: as §1, §2, §3, §4, §5, §6
The subject of experiment [13] is PLC/PRF/5. Briefly: CellTiter-Glo IG50, Example 9 HCC panel, PLC/PRF/5. The following applies: Homo sapiens, PLC/PRF/5, 72 hours. The method, then:
as §3, §4, §5, §6, §2, §7

Experiment [14] deals with HepG2. The experiment is described as follows: CellTiter-Glo IG50, Example 8, HepG2. The conditions noted are these: Homo sapiens, HepG2, 72 hours. The protocol:
as §1, §2, §3, §4, §5, §6

In experiment [15] the test system is HCT116. Briefly: CellTiter-Glo IG50, Example 8, HCT116. The following applies: Homo sapiens, HCT-116, HCT116, 72 hours. The protocol:
as §1, §2, §3, §4, §5, §6

Experiment [16] has as its system SNU878. The experiment is described as follows: CellTiter-Glo IG50, Example 9 HCC panel, SNU878. The conditions noted are these: SNU878, 72 hours. The method, then: as §3, §4, §5, §6, §2, §7
The subject of experiment [17] is LoVo. Briefly: CellTiter-Glo IG50, Example 8, LoVo. The conditions noted are these: Homo sapiens, 72 hours. The method, then:
as §1, §2, §3, §4, §5, §6

Experiment [18] relates to PANC-1. The experiment is described as follows: CellTiter-Glo IG50, Example 8, PANC-1. The conditions noted are these: Homo sapiens, PANC-1, 72 hours. The method, then:
as §1, §2, §3, §4, §5, §6

The subject of experiment [19] is MIAPACA-2. Briefly: CellTiter-Glo IG50, Example 8, MIAPACA-2. The following applies: Homo sapiens, MIA PaCa-2, MIAPACA-2, 72 hours. The method, then:
as §1, §2, §3, §4, §5, §6

Experiment [20] has as its system MCF-7. Briefly: CellTiter-Glo IG50, Example 8, MCF-7. The following applies: Homo sapiens, MCF7, MCF-7, 72 hours. The method, then: as §1, §2, §3, §4, §5, §6
The test system of experiment [21] is T47D. Briefly: CellTiter-Glo IG50, Example 8, T47D. The conditions noted are these: Homo sapiens, 72 hours. The method, then: as §1, §2, §3, §4, §5, §6
In experiment [22] the test system is HUH7. Briefly: CellTiter-Glo IG50, Example 9 HCC panel, HUH7. The conditions noted are these: Homo sapiens, Huh-7, HUH7, 72 hours. The protocol:
as §3, §4, §5, §6, §2, §7

Experiment [23] relates to HUH7. Briefly: CellTiter-Glo IG50, Example 10 HCC panel, HUH7. The conditions noted are these: Homo sapiens, Huh-7, HUH7, 72 hours. The protocol: as §3, §4, §5, §6, §2
(§8) Following the cell culture protocol and data analysis method described in Example 8, the following IG50 results (in μM) were observed: […]

Experiment [24] has as its system Hep3B. Briefly: CellTiter-Glo IG50, Example 10 HCC panel, Hep3B. The conditions noted are these: Homo sapiens, 72 hours. The protocol: as §3, §4, §5, §6, §2, §8
In experiment [25] the test system is PBMC. The experiment is described as follows: CellTiter-Glo IG50, Example 10 HCC panel, PBMC. The conditions noted are these: 72 hours. The method, then: as §3, §4, §5, §6, §2, §8
For experiment [26], the system named is SNU878. The experiment is described as follows: CellTiter-Glo IG50, Example 10 HCC panel, SNU878. The following applies: SNU878, 72 hours. The protocol:
as §3, §4, §5, §6, §2, §8

Experiment [27] concerns PLC/PRF/5. The experiment is described as follows: CellTiter-Glo IG50, Example 10 HCC panel, PLC/PRF/5. The following applies: Homo sapiens, PLC/PRF/5, 72 hours. The protocol: as §3, §4, §5, §6, §2, §8
Experiment [28] has as its system JHH5. Briefly: CellTiter-Glo IG50, Example 10 HCC panel, JHH5. The conditions noted are these: JHH5, 72 hours. The protocol:
as §3, §4, §5, §6, §2, §8

In experiment [29] the test system is HepG2. Briefly: CellTiter-Glo IG50, Example 10 HCC panel, HepG2. The following applies: Homo sapiens, HepG2, 72 hours. The protocol: as §3, §4, §5, §6, §2, §8

The IC50 is the concentration that inhibits the measured activity by half. A high value points to weaker potency. For `CCCCCOc1ccc2cc3c(=O)[nH]c(=O)nc-3oc2c1Cl` [IT-843], the 50% inhibitory concentration (IC50) in experiment [1] was 4.44 µM; in experiment [2], 1.42 µM; in experiment [3] it was greater than 16 µM; in experiment [4] it was 6.61 µM; in experiment [5], greater than 16 µM; in experiment [6], 4.53 µM. In addition, the concentration for half-maximal inhibition (IC50) in experiment [7] is 1.09 µM; in experiment [8], greater than 16 µM; in experiment [9] it was 3.6 µM; in experiment [10], greater than 16 µM; in experiment [11], 13.3 µM; in experiment [12], 2.68 µM. Further, the concentration for half-maximal inhibition (IC50) in [13] was greater than 16 µM; in [14], 3.94 µM; in [15] it was 9.4 µM; in experiment [16] it was greater than 16 µM; in experiment [17], 2.89 µM; in [18], 5.54 µM. Besides, the IC50 in experiment [19] was 10.2 µM; in [20] it was 6.81 µM; in [21], 4.96 µM; in experiment [22], 5.16 µM.

`CC(C)(C)CCOc1ccc2cc3c(=O)[nH]c(=O)nc-3oc2c1Cl` [IT-845]: the IC50 in experiment [23] is 6.02 µM; in [6], 4.14 µM; in [7] it was 0.274 µM; in experiment [24] it was 4.03 µM; in experiment [9], 1.81 µM; in experiment [11], 8.11 µM. Besides, the half-inhibitory concentration (IC50) in experiment [13] amounted to 7.66 µM; in experiment [16], 10.7 µM; in [25], 2.4 µM; in [26] it was 9.8 µM; in experiment [27], 9.22 µM; in [22], 2.72 µM. Also, the half-inhibitory concentration (IC50) in experiment [28] came out at 10.1 µM; in [29], 6.95 µM.

Take `CCCCCCOc1ccc2cc3c(=O)[nH]c(=O)nc-3oc2c1Cl` [IT-848]: the IC50 is 7.72 µM in [23]; 7.67 µM in experiment [1]; 2.43 µM in experiment [2]; greater than 16 µM in experiment [3]; greater than 16 µM in experiment [4]; greater than 16 µM in experiment [5]. Also, the concentration for half-maximal inhibition (IC50) was 5.84 µM in experiment [6]; 1.19 µM in experiment [7]; greater than 16 µM in experiment [8]; 6.09 µM in experiment [24]; 3.51 µM in experiment [9]; greater than 16 µM in experiment [10]. Further, the half-inhibitory concentration (IC50) in experiment [11] was 12.9 µM; in experiment [12], 2.35 µM; in experiment [13] it was greater than 16 µM; in experiment [14], 6.7 µM; in [15], greater than 16 µM; in [16] it was 14.6 µM. Further, the IC50 is 5.07 µM in [17]; 3.63 µM in [25]; 9.88 µM in experiment [18]; greater than 16 µM in [26]; greater than 16 µM in [19]; 5.19 µM in [20]. Besides, the half-maximal inhibitory concentration (IC50) in experiment [21] was 6.14 µM; in [27] it was greater than 16 µM; in experiment [22] it was 4.25 µM; in experiment [28], 13.4 µM; in experiment [29], 9.95 µM.
